The target of test [1] is T1, MLLT1 (Homo sapiens, UniProt Q03111).
T1 construct: host or cells: MV4-11
T1 sequence (Q03111 1-559): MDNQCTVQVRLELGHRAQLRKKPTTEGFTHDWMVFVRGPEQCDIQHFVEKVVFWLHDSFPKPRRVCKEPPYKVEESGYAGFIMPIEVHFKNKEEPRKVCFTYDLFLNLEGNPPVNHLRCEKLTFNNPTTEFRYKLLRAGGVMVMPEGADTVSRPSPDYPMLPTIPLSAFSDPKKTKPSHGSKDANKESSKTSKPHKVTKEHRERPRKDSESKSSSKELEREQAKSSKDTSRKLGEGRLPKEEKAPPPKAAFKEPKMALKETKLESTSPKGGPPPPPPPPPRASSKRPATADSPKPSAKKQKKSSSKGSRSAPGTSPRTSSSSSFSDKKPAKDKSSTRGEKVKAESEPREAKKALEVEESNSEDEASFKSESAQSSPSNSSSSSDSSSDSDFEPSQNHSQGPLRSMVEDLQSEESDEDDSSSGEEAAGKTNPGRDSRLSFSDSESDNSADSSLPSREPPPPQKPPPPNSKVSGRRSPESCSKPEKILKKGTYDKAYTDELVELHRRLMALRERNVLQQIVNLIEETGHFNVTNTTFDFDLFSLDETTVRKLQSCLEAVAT
The test is described as follows: MLLT1 degradation assay in MV4-11 cells (JESS chemiluminescent detection), three concentrations, 24 h. To be noted: with respect to DMSO control. The class given is cell-based. In short, it runs like this: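 Read-out is % MLLT1 degradation versus DMSO, from band peak areas on a JESS chemiluminescent system. Cells (MV4-11) were exposed for 24 h at 37° C to three compound levels, 10, 100 and 1000 nM, in 0.1% DMSO.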

Test [2] relates to MV4-11 cells. Put plainly: MV4-11 cellular proliferative assay, Assay Format B (CTG 2.0, 168 h). It is filed as cell-based. To be noted: Homo sapiens, 168 h (7 days), CTG 2.0, read-out: IC50 (MV4-11 cellular proliferative assay, Assay format B). A digest of the protocol:
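Viability read by CellTiter-Glo 2.0 luminescence after 7-day (168 h) compound exposure of MV4-11 cells in IMDM/10% FBS. Ten 3-fold concentrations starting at 1 uM or 100 nM, 0.3% final DMSO; curves normalised to DMSO control, four-parameter fit.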

As to `Cc1cc(C2CCN(c3ccc(C(=O)Nc4cc5[nH]c([C@H]6CCCN6C)cc5cn4)cn3)CC2)ccc1-c1cccc2c1CN(C1CCC(=O)NC1=O)C2=O` (stereo partly drawn) [Example 99, 6-(4-(4-(2-(2,6-dioxopiperidin-3-yl)-1-oxoisoindolin-4-yl)-3-methylphenyl)piperidin-1-yl)-N-(2-((R)-1-methylpyrrolidin-2-yl)-1H-pyrrolo[3,2-c]pyridin-6-yl)nicotinamide], in test [1], the “MLLT1% Degradation @ 0.01 μM” value is “B (Category B: 50% ≤ B < 75% degradation)”, the “MLLT1% Degradation @ 0.1 μM” value is recorded as “A (Category A: A ≥ 75% degradation)” and the “MLLT1% Degradation @ 1 μM” value is listed as “A (Category A: A ≥ 75% degradation)”. Besides, the IC50 (in general, the midpoint of a concentration-inhibition curve) in test [2] is ≤ 100 nM.

For `COc1cc(CCCCC#Cc2cccc3c2CN(C2CCC(=O)NC2=O)C3=O)ccc1C(=O)Nc1cc2[nH]c([C@H]3CCCN3C)cc2cn1` (stereo partly drawn) [Example 115, 4-(6-(2-(2,6-dioxopiperidin-3-yl)-1-oxoisoindolin-4-yl)hex-5-yn-1-yl)-2-methoxy-N-(2-((R)-1-methylpyrrolidin-2-yl)-1H-pyrrolo[3,2-c]pyridin-6-yl)benzamide], in test [1], the “MLLT1% Degradation @ 0.01 μM” value was “A (Category A: A ≥ 75% degradation)”, the “MLLT1% Degradation @ 0.1 μM” value is “A (Category A: A ≥ 75% degradation)” and the “MLLT1% Degradation @ 1 μM” value is listed as “A (Category A: A ≥ 75% degradation)”. Further, in test [2], the IC50 was ≤ 100 nM.

On to `CN1CCC[C@@H]1c1cc2cnc(NC(=O)c3ccc(N4CCN(CCCC#Cc5cccc6c5CN(C5CCC(=O)NC5=O)C6=O)CC4)nc3)cc2[nH]1` (stereo partly drawn) [Example 149, 6-(4-(5-(2-(2,6-dioxopiperidin-3-yl)-1-oxoisoindolin-4-yl)pent-4-yn-1-yl)piperazin-1-yl)-N-(2-((R)-1-methylpyrrolidin-2-yl)-1H-pyrrolo[3,2-c]pyridin-6-yl)nicotinamide], for which, in test [1], the “MLLT1% Degradation @ 0.01 μM” value is “A (Category A: A ≥ 75% degradation)”, the “MLLT1% Degradation @ 0.1 μM” value is on record as “A (Category A: A ≥ 75% degradation)” and the “MLLT1% Degradation @ 1 μM” value was “A (Category A: A ≥ 75% degradation)”. Further, the IC50 in test [2] was ≤ 100 nM.

For `CN1CCC[C@@H]1c1cc2cnc(NC(=O)c3ccc(-c4cnn(CCCCC#Cc5cccc6c5CN(C5CCC(=O)NC5=O)C6=O)c4)cc3)cc2[nH]1` (stereo partly drawn) [Example 59, 4-(1-(6-(2-(2,6-dioxopiperidin-3-yl)-1-oxoisoindolin-4-yl)hex-5-yn-1-yl)-1H-pyrazol-4-yl)-N-(2-((R)-1-methylpyrrolidin-2-yl)-1H-pyrrolo[3,2-c]pyridin-6-yl)benzamide], in test [1], the “MLLT1% Degradation @ 0.01 μM” value is “A (Category A: A ≥ 75% degradation)”, the “MLLT1% Degradation @ 0.1 μM” value is reported as “A (Category A: A ≥ 75% degradation)” and the “MLLT1% Degradation @ 1 μM” value was “B (Category B: 50% ≤ B < 75% degradation)”. Further, in test [2], the IC50 was ≤ 100 nM.

On to `CN1CCC[C@@H]1c1cc2cnc(NC(=O)c3ccc(CCCC#Cc4cccc5c4CN(C4CCC(=O)NC4=O)C5=O)cn3)cc2[nH]1` (stereo partly drawn) [Example 197, 5-(5-(2-(2,6-dioxopiperidin-3-yl)-1-oxoisoindolin-4-yl)pent-4-yn-1-yl)-N-(2-((R)-1-methylpyrrolidin-2-yl)-1H-pyrrolo[3,2-c]pyridin-6-yl)picolinamide], for which, in test [1], the “MLLT1% Degradation @ 0.01 μM” value is listed as “A (Category A: A ≥ 75% degradation)”, the “MLLT1% Degradation @ 0.1 μM” value is given as “A (Category A: A ≥ 75% degradation)” and the “MLLT1% Degradation @ 1 μM” value is given as “A (Category A: A ≥ 75% degradation)”. In addition, the IC50 in test [2] is ≤ 100 nM.

For the molecule `CN1CCC[C@@H]1c1[nH]c2cc(NC(=O)c3ccc(OCCC4CCN(c5cccc6c5CN(C5CCC(=O)NC5=O)C6=O)CC4)cc3)ncc2c1Cl` (stereo in doubt) [Example 161, N-(3-chloro-2-((R)-1-methylpyrrolidin-2-yl)-1H-pyrrolo[3,2-c]pyridin-6-yl)-4-(2-(1-(2-((rel-S)-2,6-dioxopiperidin-3-yl)-1-oxoisoindolin-4-yl)piperidin-4-yl)ethoxy)benzamide], in test [1], the “MLLT1% Degradation @ 0.01 μM” value is “A (Category A: A ≥ 75% degradation)”, the “MLLT1% Degradation @ 0.1 μM” value is “A (Category A: A ≥ 75% degradation)” and the “MLLT1% Degradation @ 1 μM” value is “A (Category A: A ≥ 75% degradation)”. The half-inhibitory concentration (IC50) in test [2] is ≤ 100 nM.

Turning to `CN1CCC[C@@H]1c1cc2cnc(NC(=O)c3cnc(N4CCC(C#Cc5cccc6c5CN(C5CCC(=O)NC5=O)C6=O)CC4)cn3)cc2[nH]1` (stereo partly drawn) [Example 186, 5-(4-((2-(2,6-dioxopiperidin-3-yl)-1-oxoisoindolin-4-yl)ethynyl)piperidin-1-yl)-N-(2-((R)-1-methylpyrrolidin-2-yl)-1H-pyrrolo[3,2-c]pyridin-6-yl)pyrazine-2-carboxamide], in test [1], the “MLLT1% Degradation @ 0.01 μM” value is “B (Category B: 50% ≤ B < 75% degradation)”, the “MLLT1% Degradation @ 0.1 μM” value was “A (Category A: A ≥ 75% degradation)” and the “MLLT1% Degradation @ 1 μM” value was “B (Category B: 50% ≤ B < 75% degradation)”. Further, the IC50 in test [2] is ≤ 100 nM.

With `CN1CCC[C@@H]1c1cc2cnc(NC(=O)c3ccc(N4CCN(CC5CCN(c6cccc7c6CN(C6CCC(=O)NC6=O)C7=O)CC5)CC4)nc3)cc2[nH]1` (stereo partly drawn) [Example 169, 6-(4-((1-(2-(2,6-dioxopiperidin-3-yl)-1-oxoisoindolin-4-yl)piperidin-4-yl)methyl)piperazin-1-yl)-N-(2-((R)-1-methylpyrrolidin-2-yl)-1H-pyrrolo[3,2-c]pyridin-6-yl)nicotinamide], in test [1], the “MLLT1% Degradation @ 0.01 μM” value is given as “B (Category B: 50% ≤ B < 75% degradation)”, the “MLLT1% Degradation @ 0.1 μM” value is “A (Category A: A ≥ 75% degradation)” and the “MLLT1% Degradation @ 1 μM” value is “A (Category A: A ≥ 75% degradation)”. Besides, in test [2], the IC50 is ≤ 100 nM.

For `CN1CCC[C@@H]1c1cc2cnc(NC(=O)c3ccc(OCCc4ccc(-c5cccc6c5CN(C5CCC(=O)NC5=O)C6=O)cc4)cc3F)cc2[nH]1` (stereo partly drawn) [Example 207, 4-(4-(2-(2,6-dioxopiperidin-3-yl)-1-oxoisoindolin-4-yl)phenethoxy)-2-fluoro-N-(2-((R)-1-methylpyrrolidin-2-yl)-1H-pyrrolo[3,2-c]pyridin-6-yl)benzamide], in test [1], the “MLLT1% Degradation @ 0.01 μM” value is “A (Category A: A ≥ 75% degradation)”, the “MLLT1% Degradation @ 0.1 μM” value is reported as “A (Category A: A ≥ 75% degradation)” and the “MLLT1% Degradation @ 1 μM” value was “A (Category A: A ≥ 75% degradation)”. For the same molecule, the IC50 in test [2] is ≤ 100 nM.

`CN1CCC[C@@H]1c1cc2cnc(NC(=O)c3ccc(N4CCN(CC#Cc5cccc6c5CN(C5CCC(=O)NC5=O)C6=O)CC4)cc3F)cc2[nH]1` (stereo partly drawn) [Example 155, 4-(4-(3-(2-(2,6-dioxopiperidin-3-yl)-1-oxoisoindolin-4-yl)prop-2-yn-1-yl)piperazin-1-yl)-2-fluoro-N-(2-((R)-1-methylpyrrolidin-2-yl)-1H-pyrrolo[3,2-c]pyridin-6-yl)benzamide]: in test [1], the “MLLT1% Degradation @ 0.01 μM” value is given as “A (Category A: A ≥ 75% degradation)”, the “MLLT1% Degradation @ 0.1 μM” value was “A (Category A: A ≥ 75% degradation)” and the “MLLT1% Degradation @ 1 μM” value was “B (Category B: 50% ≤ B < 75% degradation)”. In addition, the concentration for half-maximal inhibition (IC50) in test [2] is ≤ 100 nM.

Take `CN1CCC[C@@H]1c1cc2cnc(NC(=O)c3ccc(CCCC4CCN(c5cccc6c5CN(C5CCC(=O)NC5=O)C6=O)CC4)cc3)cc2[nH]1` (mixture of isomers) [Example 76, 4-(3-(1-(2-(2,6-dioxopiperidin-3-yl)-1-oxoisoindolin-4-yl)piperidin-4-yl)propyl)-N-(2-((R)-1-methylpyrrolidin-2-yl)-1H-pyrrolo[3,2-c]pyridin-6-yl)benzamide]: in test [1], the “MLLT1% Degradation @ 0.01 μM” value was “A (Category A: A ≥ 75% degradation)”, the “MLLT1% Degradation @ 0.1 μM” value was “A (Category A: A ≥ 75% degradation)” and the “MLLT1% Degradation @ 1 μM” value is “A (Category A: A ≥ 75% degradation)”. Further, the IC50 in test [2] is ≤ 100 nM.

Regarding `CN1CCC[C@@H]1c1cc2cnc(NC(=O)c3ccc(N4CCN(CC5CCN(c6cccc7c6CN([C@H]6CCC(=O)NC6=O)C7=O)CC5)CC4)cc3)cc2[nH]1` (relative stereo) [Example 117, 4-(4-((1-(2-((rel-S)-2,6-dioxopiperidin-3-yl)-1-oxoisoindolin-4-yl)piperidin-4-yl)methyl)piperazin-1-yl)-N-(2-((R)-1-methylpyrrolidin-2-yl)-1H-pyrrolo[3,2-c]pyridin-6-yl)benzamide], in test [1], the “MLLT1% Degradation @ 0.01 μM” value was “B (Category B: 50% ≤ B < 75% degradation)”, the “MLLT1% Degradation @ 0.1 μM” value is recorded as “A (Category A: A ≥ 75% degradation)” and the “MLLT1% Degradation @ 1 μM” value is on record as “B (Category B: 50% ≤ B < 75% degradation)”. In addition, the half-maximal inhibitory concentration (IC50) in test [2] was ≤ 100 nM.

The record behind these values is patent US20260191968A1, “PROTAC DEGRADERS OF MLLT1 AND/OR MLLT3” (DARK BLUE THERAPEUTICS LTD, priority 2024, published 2026).
